Values after ≈ are worked out from the molar mass of the structure shown. Like-named read-outs stand apart in the source and are kept apart here.

Data on three compounds can be found in publication PMC6874179, “Development of Macrocycle Kinase Inhibitors for ALK2 Using Fibrodysplasia Ossificans Progressiva‐Derived Endothelial Cells” (JBMR Plus, 2019).

One data set in a line: Solubility determination. The format is physicochemical. As to conditions: kinetic from dmso stock, 2-hour equilibrium, room temperature. The method, then: Test compound from 5 mM DMSO stock solution were diluted to 250 µM either in 50 mM PBS pH 7.4 or FaSSIF pH 6.5 in triplicate. DMSO final concentration was 5%. After a 2-hour equilibrium at room temperature and under shaking, samples were centrifuged at 3000g for 10 min at room temperature. A calibration curve was prepared in LC mobile phase from the 5 mM DMSO stock solution. Samples and calibration curve were analyzed by LC with UV detection.

Data set [1] is described as follows: Microsomal incubations, hLM. As to conditions: human, pooled liver microsomes, pH 7.4; microsomes 0.5 mg/ml, 0.5 μM compound; read-out: Metabolic clearance hLM. The format is in vitro ADME. As for the experimental part: Pooled human liver microsomes were purchased from Xenotech LLC (Kansas City, KS). Microsomes (0.5 mg/ml) were preincubated with 0.5 μM test compound for 7 min at 37°C in 50 mM phosphate buffer, pH 7.4. The reactions were initiated by adding prewarmed cofactor (0.44 mM NADPH). Aliquots of samples were taken at 0, 5, 10, 20 and 45 min and the reactions terminated by addition of cold acetonitrile containing an internal standard. Samples were centrifuged at 3000g for 10 min at 4°C and then supernatants were analyzed by LC/MS/MS for the amount of parent compound remaining.
In general terms: Microsomes from liver hold many membrane-bound enzymes, among them those of drug oxidation.

The subject of the next data set is FOP ECFCs. The data set is described as follows: Smad1/5 activation and ID-1/ID-3 expression in FOP ECFCs. Type of data set: cell-based, human. As to conditions: compound 0.5μM; for Effect on activin A-induced activation of Smad1/5 and gene targets ID-1 and ID-3: activin A 50 ng/mL; for Effect on BMP-6-induced downstream signaling: BMP-6 50 ng/mL. As for the experimental part: Total RNA extraction was performed using NucleoSpin RNA II (Machery Nagel, Düren, Germany). There were 500 ng of RNA retro‐transcribed using RevertAid First Strand cDNA Synthesis Kits (Fisher Scientific, Landsmeer, The Netherlands), and real‐time reverse transcription‐PCR experiments were performed using SYBR Green (Bio‐Rad, Veenendaal, The Netherlands) and a Bio‐Rad CFX Connect device. A list of the oligonucleotides used can be found as online supplemental data.
Cells were incubated for 21 days in chondrogenic medium containing BMP‐6 or activin A (50 ng/mL) and LDN‐193189, OD36, or OD52 at 0.5μM, prior to Alcian Blue staining. (B) Quantification of Fig. 6 A by absorbance, after solubilization with guanidine hydrochloride. (C) Chondrogenic gene expression analysis of collagen 2 (Col2), Sox9, Matrix metalloproteinase 13 (Mmp13), and collagen X (Col X) in ATDC5 cells corresponding to (A). (D) Western blot of a representative clone of FOP endothelial colony‐forming cells (ECFCs) incubated with LDN‐193189, OD36, or OD52 (0.5μM) prior to stimulation with BMP‐6 (50 ng/mL) or activin A (50 ng/mL). (E) Expression of the BMP target genes ID1 and ID3 by qPCR in FOP ECFCs stimulated with BMP‐6 (50 ng/mL) or activin A (50 ng/mL) in the presence of the indicated compounds at 0.5μM. (F) Alizarin Red solution staining on a representative clone of FOP ECFCs incubated under osteogenic conditions with BMP‐6 (50 ng/mL) or activin A (50 ng/mL) and the indicated compounds. (G) Quantification of Fig. 6 F by absorbance, after solubilization with cetylpyridinium. (H) Osteogenic genes Collagen 1 alpha 1 (Col1a1), Runx2, and osterix (Osx) expression in a representative clone of FOP ECFCs incubated under osteogenic conditions with BMP‐6 (50 ng/mL) or activin A (50 ng/mL) and LDN‐193189, OD36, or OD52 (0.5 μM). *p < 0.05, **p < 0.01, ***p < 0.001.
(§1) Cells were seeded into 6-well plates and cultured till they reached confluence. Next, cells were stimulated as indicated and then washed with cold PBS. Lysates were prepared using 2x Sample buffer (10% SDS, 62.5 mM Tris-HCl pH 6.8, 0.002 % Bromophenol Blue, 0.7135 M (5%) β-mercaptoethanol, 10 % glycerol) and boiled for 5 minutes before loading. Electrophoresis was performed in 10% SDS/polyacrylamide gels. Separated proteins were transferred to nitrocellulose membranes (0.5 A at 100 V; in ice) for 1 hour. Blots were blocked in Tris-Buffered Saline solution containing 0.1% Tween 20 and 5% non-fat dry milk overnight at 4 °C, and immune-detection of specific proteins was carried out with primary antibodies (see above) followed by horseradish peroxidase-conjugated anti-mouse or anti-rabbit (GE Healthcare, Eindhoven, The Netherlands) secondary antibodies using an ECL system (Fisher Scientific, Landsmeer, The Netherlands).

Another data set concerns p-Smad1/5 in 2H11 ECs. The data set is described as follows: Western blot of p-Smad1/5 in 2H11 endothelial cells. Type of data set: cell-based, mouse. To be noted: 2H11 cells, compound 0.5μM; for Inhibition of BMP-6-induced p-Smad1/5: BMP-6 50 ng/mL; for Inhibition of BMP-9-induced p-Smad1/5: BMP-9 1 ng/mL. The method, then: Compounds were added for 16 hours at 0.5μM before luciferase activity was measured.
as §1, with “Lysates were prepared using 2x Sample buffer (10% SDS, 62.5 mM Tris-HCl pH 6.8, 0.002 % Bromophenol Blue, 0.7135 M (5%) β-mercaptoethanol, 10 % glycerol) and boiled for 5 minutes before loading.” left out
A general note: A western blot detects proteins with antibodies after separation by electrophoresis.

A further data set concerns the target T1, JAK3 (Homo sapiens, UniProt P52333).
T1 construct: purchased DiscoverX
Briefly: Proqinase Kinase profiling. Type of data set: biochemical. To be noted: read-out: % inhibition at 100nM.

In the next data set the target is T2, FGFR1 (Homo sapiens, UniProt P11362).
T2 construct: purchased DiscoverX
Briefly: Proqinase Kinase profiling. Type of data set: biochemical. To be noted: read-out: % inhibition at 100nM.

Another data set concerns the target T3, FGR (Homo sapiens, UniProt P09769).
T3 construct: purchased DiscoverX
Briefly: Proqinase Kinase profiling. The format is biochemical. As to conditions: read-out: % inhibition at 100nM.

A further data set deals with T4, EPHA1 (Homo sapiens, UniProt P21709).
T4 construct: purchased DiscoverX
T4 sequence (P21709 26-976): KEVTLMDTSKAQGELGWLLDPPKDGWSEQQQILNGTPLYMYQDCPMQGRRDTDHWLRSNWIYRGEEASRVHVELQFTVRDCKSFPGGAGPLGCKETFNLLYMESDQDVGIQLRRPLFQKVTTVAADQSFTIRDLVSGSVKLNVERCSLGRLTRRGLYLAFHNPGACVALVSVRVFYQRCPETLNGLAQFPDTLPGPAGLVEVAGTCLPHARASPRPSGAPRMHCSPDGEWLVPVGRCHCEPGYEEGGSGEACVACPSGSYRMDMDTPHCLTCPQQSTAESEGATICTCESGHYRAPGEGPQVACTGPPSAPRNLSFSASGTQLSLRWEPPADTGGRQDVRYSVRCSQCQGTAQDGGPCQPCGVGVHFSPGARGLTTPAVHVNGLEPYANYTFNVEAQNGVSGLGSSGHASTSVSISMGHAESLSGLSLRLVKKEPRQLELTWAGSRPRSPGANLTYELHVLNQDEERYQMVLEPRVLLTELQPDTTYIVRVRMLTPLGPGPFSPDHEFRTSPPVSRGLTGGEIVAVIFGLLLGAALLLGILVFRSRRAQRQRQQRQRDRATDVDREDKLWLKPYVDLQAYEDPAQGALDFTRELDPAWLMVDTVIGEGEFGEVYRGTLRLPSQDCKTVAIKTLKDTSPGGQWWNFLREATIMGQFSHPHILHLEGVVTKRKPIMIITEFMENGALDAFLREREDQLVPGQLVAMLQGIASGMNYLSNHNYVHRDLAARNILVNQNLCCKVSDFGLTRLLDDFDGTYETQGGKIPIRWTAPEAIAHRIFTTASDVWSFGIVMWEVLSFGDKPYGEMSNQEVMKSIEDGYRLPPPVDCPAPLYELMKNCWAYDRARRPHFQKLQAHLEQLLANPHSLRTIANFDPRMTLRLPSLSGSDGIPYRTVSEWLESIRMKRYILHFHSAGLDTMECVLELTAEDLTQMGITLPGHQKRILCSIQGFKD
Briefly: Proqinase Kinase profiling. The format is biochemical. To be noted: read-out: % inhibition at 100nM.

The target in the next data set is T5, MAPKAPK5 (Homo sapiens, UniProt Q8IW41).
T5 construct: purchased DiscoverX
The data set is described as follows: Proqinase Kinase profiling. As to conditions: read-out: % inhibition at 100nM. The format is biochemical.

Another data set deals with T6, ABL1_Y253F (Homo sapiens, UniProt P00519, Y253F).
T6 construct: purchased DiscoverX
The data set is described as follows: Proqinase Kinase profiling. The format is biochemical. As to conditions: read-out: % inhibition at 100nM.

The target of another data set is T7, WEE1 (Homo sapiens, UniProt P30291).
T7 construct: purchased DiscoverX
T7 sequence (P30291 whole entry): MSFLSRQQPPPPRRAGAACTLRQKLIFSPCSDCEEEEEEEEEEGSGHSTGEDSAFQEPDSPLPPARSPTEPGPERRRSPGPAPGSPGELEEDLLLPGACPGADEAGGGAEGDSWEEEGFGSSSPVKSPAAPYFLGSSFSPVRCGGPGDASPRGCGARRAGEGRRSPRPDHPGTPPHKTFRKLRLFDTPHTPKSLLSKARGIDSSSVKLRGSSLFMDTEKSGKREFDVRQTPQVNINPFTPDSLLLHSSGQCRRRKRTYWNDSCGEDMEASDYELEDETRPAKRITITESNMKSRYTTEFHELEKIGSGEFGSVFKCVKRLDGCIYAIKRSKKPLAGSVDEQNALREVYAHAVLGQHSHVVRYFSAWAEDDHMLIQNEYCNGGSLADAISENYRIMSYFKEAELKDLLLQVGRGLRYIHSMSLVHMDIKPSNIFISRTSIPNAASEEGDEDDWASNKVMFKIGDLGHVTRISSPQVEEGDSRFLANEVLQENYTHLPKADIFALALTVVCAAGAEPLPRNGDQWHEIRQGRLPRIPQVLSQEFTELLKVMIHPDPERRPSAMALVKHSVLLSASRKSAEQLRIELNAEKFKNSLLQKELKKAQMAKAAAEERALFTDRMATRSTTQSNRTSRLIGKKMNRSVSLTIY
Briefly: Proqinase Kinase profiling. Type of data set: biochemical. As to conditions: read-out: % inhibition at 100nM.

Another data set has as its target T8, KIT (Homo sapiens, UniProt P10721).
T8 construct: purchased DiscoverX
The data set is described as follows: Proqinase Kinase profiling. Type of data set: biochemical. To be noted: read-out: % inhibition at 100nM.

For a further data set, the target named is T9, PRKCE (Homo sapiens, UniProt Q02156).
T9 construct: purchased DiscoverX
T9 sequence (Q02156 whole entry): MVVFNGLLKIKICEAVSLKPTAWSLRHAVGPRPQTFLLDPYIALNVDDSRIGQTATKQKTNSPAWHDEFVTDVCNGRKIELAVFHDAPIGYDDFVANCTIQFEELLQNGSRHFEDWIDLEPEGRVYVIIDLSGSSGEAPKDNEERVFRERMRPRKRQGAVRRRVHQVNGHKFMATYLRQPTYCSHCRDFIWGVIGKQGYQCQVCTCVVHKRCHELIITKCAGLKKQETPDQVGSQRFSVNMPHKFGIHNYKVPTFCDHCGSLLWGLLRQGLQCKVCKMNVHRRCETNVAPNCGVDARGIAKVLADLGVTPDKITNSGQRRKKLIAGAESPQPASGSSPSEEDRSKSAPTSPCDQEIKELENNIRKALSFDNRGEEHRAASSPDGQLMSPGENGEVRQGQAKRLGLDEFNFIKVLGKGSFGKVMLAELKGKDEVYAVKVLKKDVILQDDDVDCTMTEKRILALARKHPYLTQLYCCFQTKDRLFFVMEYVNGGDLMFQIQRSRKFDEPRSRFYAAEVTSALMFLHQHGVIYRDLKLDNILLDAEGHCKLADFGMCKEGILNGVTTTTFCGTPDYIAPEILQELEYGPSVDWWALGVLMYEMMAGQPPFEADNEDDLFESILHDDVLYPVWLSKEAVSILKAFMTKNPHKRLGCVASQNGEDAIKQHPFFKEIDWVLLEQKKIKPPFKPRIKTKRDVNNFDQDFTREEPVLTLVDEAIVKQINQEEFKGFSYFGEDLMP
Briefly: Proqinase Kinase profiling. The format is biochemical. To be noted: read-out: % inhibition at 100nM.

Where [2] appears, read: PBS buffer, aqueous buffer, 50 mM PBS pH 7.4, 5% DMSO, read-out: Solubility in µM PBS.
Setting [3] is: FaSSIF pH 6.5, 5% DMSO, read-out: Solubility in µM FaSSIF.

T3 sequence (P09769 whole entry): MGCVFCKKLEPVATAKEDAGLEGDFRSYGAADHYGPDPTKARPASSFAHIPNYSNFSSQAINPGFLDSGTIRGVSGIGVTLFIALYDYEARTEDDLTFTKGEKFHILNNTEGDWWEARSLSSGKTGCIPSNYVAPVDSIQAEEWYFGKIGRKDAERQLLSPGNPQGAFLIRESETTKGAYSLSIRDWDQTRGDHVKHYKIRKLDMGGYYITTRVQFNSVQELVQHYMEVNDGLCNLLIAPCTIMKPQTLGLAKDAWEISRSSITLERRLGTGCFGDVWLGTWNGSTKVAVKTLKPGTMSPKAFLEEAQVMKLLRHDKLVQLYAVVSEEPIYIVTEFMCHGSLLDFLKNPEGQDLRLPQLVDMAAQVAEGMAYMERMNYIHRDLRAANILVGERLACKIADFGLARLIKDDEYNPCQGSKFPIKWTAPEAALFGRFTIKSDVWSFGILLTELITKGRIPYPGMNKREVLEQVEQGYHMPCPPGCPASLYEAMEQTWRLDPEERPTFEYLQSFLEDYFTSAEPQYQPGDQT
T8 sequence (P10721 26-976): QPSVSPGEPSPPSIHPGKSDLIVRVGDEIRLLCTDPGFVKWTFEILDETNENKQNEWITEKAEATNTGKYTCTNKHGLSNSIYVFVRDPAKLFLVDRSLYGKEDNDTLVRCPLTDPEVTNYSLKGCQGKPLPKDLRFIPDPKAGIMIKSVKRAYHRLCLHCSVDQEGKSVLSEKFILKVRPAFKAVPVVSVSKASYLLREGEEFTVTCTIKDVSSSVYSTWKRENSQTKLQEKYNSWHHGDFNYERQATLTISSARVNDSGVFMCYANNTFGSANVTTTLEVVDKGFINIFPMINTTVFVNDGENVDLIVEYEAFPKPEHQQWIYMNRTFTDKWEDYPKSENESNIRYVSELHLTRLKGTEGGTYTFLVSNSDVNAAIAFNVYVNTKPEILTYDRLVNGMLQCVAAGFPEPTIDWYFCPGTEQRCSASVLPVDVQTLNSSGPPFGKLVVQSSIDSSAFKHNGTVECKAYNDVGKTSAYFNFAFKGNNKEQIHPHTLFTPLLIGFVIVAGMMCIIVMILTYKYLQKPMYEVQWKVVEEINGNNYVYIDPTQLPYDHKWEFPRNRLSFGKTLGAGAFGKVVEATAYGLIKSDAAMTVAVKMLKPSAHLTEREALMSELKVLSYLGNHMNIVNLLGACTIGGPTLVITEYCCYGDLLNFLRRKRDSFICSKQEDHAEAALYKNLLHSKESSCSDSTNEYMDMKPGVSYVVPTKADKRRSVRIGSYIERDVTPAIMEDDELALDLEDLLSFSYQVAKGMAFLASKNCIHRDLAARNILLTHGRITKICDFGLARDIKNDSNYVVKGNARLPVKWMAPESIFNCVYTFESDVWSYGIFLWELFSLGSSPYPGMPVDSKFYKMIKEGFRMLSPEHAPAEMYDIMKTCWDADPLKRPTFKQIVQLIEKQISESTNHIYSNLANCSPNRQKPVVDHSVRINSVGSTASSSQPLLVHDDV
T1 sequence (P52333 whole entry): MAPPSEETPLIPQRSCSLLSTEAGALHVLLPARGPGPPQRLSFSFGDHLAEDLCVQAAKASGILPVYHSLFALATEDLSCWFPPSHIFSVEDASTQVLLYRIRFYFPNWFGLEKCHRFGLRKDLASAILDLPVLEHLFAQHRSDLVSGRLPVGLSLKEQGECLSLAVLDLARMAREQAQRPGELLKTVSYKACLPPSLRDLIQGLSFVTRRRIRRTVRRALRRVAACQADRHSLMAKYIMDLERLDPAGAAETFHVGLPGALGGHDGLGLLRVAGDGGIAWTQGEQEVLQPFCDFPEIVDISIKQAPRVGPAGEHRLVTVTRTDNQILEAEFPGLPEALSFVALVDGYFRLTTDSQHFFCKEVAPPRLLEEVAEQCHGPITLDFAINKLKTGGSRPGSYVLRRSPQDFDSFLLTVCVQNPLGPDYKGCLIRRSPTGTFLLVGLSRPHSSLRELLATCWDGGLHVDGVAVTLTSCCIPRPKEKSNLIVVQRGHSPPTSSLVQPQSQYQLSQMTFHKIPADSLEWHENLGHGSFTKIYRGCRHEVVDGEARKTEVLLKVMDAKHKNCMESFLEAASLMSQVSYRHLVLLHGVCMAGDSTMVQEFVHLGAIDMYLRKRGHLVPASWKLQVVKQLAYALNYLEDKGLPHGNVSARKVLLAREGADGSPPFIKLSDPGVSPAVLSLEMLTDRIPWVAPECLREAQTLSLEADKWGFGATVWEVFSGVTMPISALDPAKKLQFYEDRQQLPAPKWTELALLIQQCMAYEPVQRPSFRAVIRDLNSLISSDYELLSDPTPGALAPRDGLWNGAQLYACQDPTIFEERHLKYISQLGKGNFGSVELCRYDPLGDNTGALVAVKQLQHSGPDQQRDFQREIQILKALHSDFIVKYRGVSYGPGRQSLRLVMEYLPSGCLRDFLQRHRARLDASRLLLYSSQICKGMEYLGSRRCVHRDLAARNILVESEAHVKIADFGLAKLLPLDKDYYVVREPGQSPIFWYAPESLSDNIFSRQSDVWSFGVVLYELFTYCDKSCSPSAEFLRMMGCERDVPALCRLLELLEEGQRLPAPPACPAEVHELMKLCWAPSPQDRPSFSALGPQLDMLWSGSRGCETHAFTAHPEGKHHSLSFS

Take `c1ccc2c(-c3cnn4cc(-c5ccc(N6CCNCC6)cc5)cnc34)ccnc2c1` [LDN-193189, reference compound]: the solubility at 2 h in the data set “Solubility determination” (setting [2]) was determined as 5 µM (≈ 2.03 µg/mL). Moreover, in “Solubility determination” (setting [3]), the solubility at 2 h stood at 49 µM (≈ 19.9 µg/mL). The microsomal CLint at 0.5 μM in data set [1] stood at 61 µL/min/mg. Also, the “Effect on activin A-induced activation of Smad1/5 and gene targets ID-1 and ID-3” value (“Effect on activin A-induced activation” for short) in the data set with FOP ECFCs was “inhibited”. Besides, in the data set with p-Smad1/5 in 2H11 ECs, the “Inhibition of BMP-6-induced p-Smad1/5” value was “efficiently blocked” and the “Inhibition of BMP-9-induced p-Smad1/5” value was “efficiently blocked”.

Regarding `Clc1cc2cc(c1)-c1cnn3ccc(nc13)NCCOCCO2` [OD36], the inhibition at 0.1 µM on JAK3 came to 6%; at FGFR1 it was 14%; at FGR, 26%; at EPHA1 it was 6%; on MAPKAPK5, 12%; on ABL1_Y253F, 3%. The inhibition at 0.1 µM on WEE1 was 15%; on KIT, 33%; at PRKCE, -1%. For the same compound, the solubility at 2 h is 2 µM (≈ 0.662 µg/mL) in “Solubility determination” (setting [2]) and 212 µM (≈ 70.1 µg/mL) in “Solubility determination” (setting [3]). Besides, in data set [1], the microsomal CLint at 0.5 μM stood at 59 µL/min/mg. In the data set with FOP ECFCs, the “Effect on BMP-6-induced downstream signaling” value is recorded as “less effective”. In addition, the “Effect on activin A-induced activation” value with FOP ECFCs was “completely prevented”. Also, the “Inhibition of BMP-6-induced p-Smad1/5” value with p-Smad1/5 in 2H11 ECs is listed as “only inhibited BMP‐9‐induced p‐Smad1/5”. Also, the “Inhibition of BMP-9-induced p-Smad1/5” value in the data set with p-Smad1/5 in 2H11 ECs was “only inhibited BMP‐9‐induced p‐Smad1/5”.

In the case of `Cc1cc2cc(c1)-c1cnn3ccc(nc13)NCCNC(=O)CCN(C)C2` [OD52], the inhibition at 0.1 µM was -3% at JAK3; 5% at FGFR1; 0% at FGR; -1% on EPHA1; 26% at MAPKAPK5; 7% on ABL1_Y253F. In addition, the inhibition at 0.1 µM was 3% at WEE1, -4% at KIT and -7% at PRKCE. Besides, the figures for the solubility at 2 h in “Solubility determination” (setting [2]) and in “Solubility determination” (setting [3]) were 140 µM (≈ 51 µg/mL) and 240 µM (≈ 87.5 µg/mL), respectively. In addition, in data set [1], the microsomal CLint at 0.5 μM is 72 µL/min/mg. Besides, the “Effect on BMP-6-induced downstream signaling” value in the data set on FOP ECFCs was “less effective”. For the same compound, in the data set with FOP ECFCs, the “Effect on activin A-induced activation” value is “completely prevented”. In the data set on p-Smad1/5 in 2H11 ECs, the “Inhibition of BMP-6-induced p-Smad1/5” value is on record as “only inhibited BMP‐9‐induced p‐Smad1/5”. Further, in the data set with p-Smad1/5 in 2H11 ECs, the “Inhibition of BMP-9-induced p-Smad1/5” value is listed as “only inhibited BMP‐9‐induced p‐Smad1/5”.

Broadly, the solubility is the concentration that dissolves in the medium under given conditions. The term inhibition denotes the change of the read-out against control, counted positive when it falls.
